The results in this text go back to patent US20100255580A1, “Differentiation of Human Embryonic Stem Cells” (LIFESCCAN, INC., priority 2007, published 2010).

Test [1] relates to H9P49 embryonic stem cells. The test can be described thus: Real-time PCR of pancreatic endoderm markers, evaluation of retinoic acid analogues. It is filed as cell-based, human. How it is done:
At day 5, cells were collected for evaluation by FACS and real-time PCR. […] The resulting definitive endoderm cells at day 5 were exposed to the following media conditions to induce pancreatic endoderm formation: culturing in DMEM/F 12 media supplemented with 2% FBS and 1 μM all-trans retinoic acid (RA) (Catalog#R2625, Sigma, MO), or 0.1-10 μM AM-580 (4-[(5,6,7,8-Tetrahydro-5,5,8,8-tetramethyl-2-naphthalenyl)carboxamido]benzoic acid, Catalog #A8843, Sigma, MO), or 0.1-1 μM TTNPB (4-[(E)-2-(5,6,7,8-Tetrahydro-5,5,8,8-tetramethyl-2-naphthalenyl)-1-propenyl]benzoic acid Arotinoid acid, Catalog #T3757, Sigma, MO) for 3 days. AM-580 and TTNPB are retinoic acid analogs with affinity for retinoic acid receptors. RA treatment was followed by additional three day treatment in DMEM/F12 media supplemented with 2% FBS and 20-50 ng/ml bFGF (Catalog #F0291, Sigma, MO).
In general terms: In qPCR the cycle at which signal appears reflects the starting amount.

In test [2] the test system is human embryonic stem cell line H1. The test can be described thus: Real-time PCR of definitive endoderm markers, H1 on human serum or […] (Examples 30, 31, 35). The test is classed as cell-based. How it is done: Cultures of the human embryonic stem cell line H1 at passage 55 were grown and differentiated on human serum (Sigma, #H1388, MO) coated plates. 0.5 ml of human serum was added to each well of 6 well tissue culture treated dish, incubated for 1 hr at room temperature, and aspirated before adding human embryonic stem cells. After cells reached 80% confluency, they were treated as follows: 2 days 0.5% FBS containing 10 ng/ml mouse recombinant Wnt3a (R&D) or 100 nM GSK-3B inhibitor IX (Catalog #361550, Calbiochem, CA) and 100 ng/mlActivin A (R&D). This was followed by 3 days 2% FBS plus 100 ng/mlActivin A. Cultures were then analyzed by real-time PCR (FIG. 46, panels a & b). […] These findings parallel our findings for human embryonic stem cells cultured on […]™ or human fibronectin coated plates.
The effectiveness of a number of commercially available GSK-3B inhibitors was evaluated in formation of DE from human embryonic stem cells. The following GSK-3B inhibitors were evaluated at 100 nM: GSK-3B inhibitor VIII (Catalog #361549, Calbiochem, CA), GSK-3B inhibitor IX (Catalog #361550, Calbiochem, CA), GSK-3B inhibitor XI (Catalog #361553, Calbiochem, CA), GSK-3B inhibitor XII (Catalog #361554, Calbiochem, CA). […] Control cultures were treated with low serum plus high dose of AA. FIG. 47, panels a and b depicts the gene expression of definitive endoderm markers at day 5. GSK-3B inhibitor IX and XI were both effective in inducing DE formation as compared to GSK-3B inhibitor VIII and XII.
The following combinations of WNT1+AA were tested:
a) 20 ng/ml of WNT1+100 ng/ml AA in 0.5% FBS+DM-F12 for days 1-2 followed by 2% FBS+DM-F12+100 ng/ml AA for day three, b) 20 ng/ml of WNT1+100 ng/ml AA in 0.5% FBS+DM-F12 for days 1-2 followed by 2% FBS+DM-F12+100 ng/ml AA for days 3-5, c) 10 ng/ml of WNT1+100 ng/ml AA in 0.5% FBS+DM-F12 for days 1-2 followed by 2% FBS+DM-F12+100 ng/ml AA for day three, d) 10 ng/ml of WNT1+100 ng/ml AA in 0.5% FBS+DM-F12 for days 1-2 followed by 2% FBS+DM-F12+100 ng/ml AA for days 3-5, e) 20 ng/ml of WNT1+100 ng/ml AA in 0.5% FBS+DM-F12 for days 1-2 followed by 2% FBS+DM-F12+100 ng/ml AA+20 ng/ml of WNT1 for day three, f) 20 ng/ml of WNT1+100 ng/ml AA in 0.5% FBS+DM-F12 for days 1-2 followed by 2% FBS+DM-F12+100 ng/ml AA+20 ng/ml of WNT1 for days 3-5.

For test [3], the system named is human embryonic stem cell line H9. The test can be described thus: Real-time PCR of marker gene expression, H9 on MEF (Examples 2-7). It is filed as cell-based. The procedure: Cells were harvested at the time points indicated in FIG. 3 and assayed by PCR for the expression of genes shown (FIGS. 3, 4 and 5).
After this time interval, the cells were then treated for six days with combinations of retinoic acid and FGF as outlined in Example 2, then the culture medium was removed and replaced with medium comprising DMEM/F12 with 2% FBS, containing the γ-secretase inhibitors L-685,458 at 10 μM for three days.
Cells were continuously cultured for another 3 to 5 days in basal medium with retinoic acid at 1 μM, alone or with bFGF. RNA samples were harvested from cells at various time points along this process to help evaluate the directed differentiation of the cells. Furthermore, culture medium and factors were regularly removed and replenished throughout the differentiation protocol.
RNA extraction, purification, and cDNA synthesis. RNA samples were purified by binding to a silica-gel membrane (Rneasy Mini Kit, Qiagen, CA) in the presence of an ethanol-containing, high-salt buffer followed by washing to remove contaminants. The RNA was further purified using a TURBO DNA-free kit (Ambion, INC), and high-quality RNA was then eluted in water. Yield and purity were assessed by A260 and A280 readings on a spectrophotometer. cDNA copies were made from purified RNA using an ABI (ABI, CA) high capacity cDNA archive kit.
Real-time PCR amplification and quantitative analysis.
Final data were expressed relative to a calibrator sample.

Test [4] concerns pancreatic endoderm cells derived from human embryonic stem cells. The test can be described thus: Passage and expansion of pancreatic endoderm cells in culture. The test is classed as cell-based. To be noted: 50 ng/ml FGF10; 6 day culture period. The procedure: The low serum DMEM/F12 contained 0% (v/v) fetal bovine serum (FBS) on day 1, 0.5% (v/v) FBS on day two and 2% (v/v) FBS on each day thereafter. After four days of differentiation, the cells were cultured in low serum DMEM/F12 contained 2% (v/v) FBS, 1 μM retinoic acid and 50 ng/ml bFGF for a total of six more days. After the six days of differentiation, the cells were maintained in culture in low serum DMEM/F12 contained 2% (v/v) FBS in the presence of 50 ng/ml FGF10 for a total of 6 days. During the six-day culture period, the pancreatic endoderm cells were passaged twice and cell population-doubling time is about 36 to 48 hours during this 6-day culture. On days 0, 3, and 6 of culture, Q-PCR was used to measure the expression of marker genes indicative of pancreatic endoderm.

The mark [5] stands for this setting: 1 μM RA followed by exposure to bFGF.

Take `CC1(C)CCC(C)(C)c2cc(C(=O)Nc3ccc(C(=O)O)cc3)ccc21` [AM-580, 4-[(5,6,7,8-Tetrahydro-5,5,8,8-tetramethyl-2-naphthalenyl)carboxamido]benzoic acid]: in test [1] (10 μM AM-580), the “AFP and CDX-2 expression” value was “suppressed”; the “expression of PDX-1” value is reported as “high expression”.
`O=C1NC(=O)C(c2cn(CCCO)c3ncccc23)=C1c1cnccn1` [GSK-3B inhibitor XI]: the “inducing DE formation” value in test [2] (H1P54 on MATRIGEL, 100 nM for first two days, compared to GSK-3B inhibitor VIII and XII) was “effective”.
As for `CC1=C(/C=C/C(C)=C/C=C/C(C)=C/C(=O)O)C(C)(C)CCC1` [retinoic acid, all-trans retinoic acid, reference compound], the “expression of GLUT-2 and PTF1a” value in test [3] (1 μM retinoic acid and bFGF in the absence of activin A) is given as “increase”. In addition, the “expression of Pdx1” value in test [3] (activin A or retinoic acid alone) is on record as “did not induce”. The “expression of α-fetoprotein (AFP) and albumin” value in test [3] (retinoic acid and FGF-4 for five days after 7 days activin A) was “further increased”. The “level of Pdx1 expression versus activin A treatment alone for 5 days” value in test [3] (three days activin A, then 5 days 1 μM retinoic acid and 50 ng/ml bFGF in the absence of activin A) is “approximately 3500 fold”. Also, in test [1] (setting [5]), the “foregut endoderm markers, such as CDX-2 and AFP” value is “robust expression”; the “pancreatic endoderm markers, such as PDX-1” value is reported as “significantly upregulates”.

B1: Wnt-1: Wnt ligand (PeproTech, NJ, Catalogue #120-17) (protein, UniProt P04628 28-370, looked up)
Proto-oncogene Wnt-1: ANSSGRWWGIVNVASSTNLLTDSKSLQLVLEPSLQLLSRKQRRLIRQNPGILHSVSGGLQSAVRECKWQFRNRRWNCPTAPGPHLFGKIVNRGCRETAFIFAITSAGVTHSVARSCSEGSIESCTCDYRRRGPGGPDWHWGGCSDNIDFGRLFGREFVDSGEKGRDLRFLMNLHNNEAGRTTVFSEMRQECKCHGMSGSCTVRTCWMRLPTLRAVGDVLRDRFDGASRVLYGNRGSNRASRAELLRLEPEDPAHKPPSPHDLVYFEKSPNFCTYSGRLGTAGTAGRACNSSSPALDGCELLCCGRGHRTRTQRVTERCNCTFHWCCHVSCRNCTHTRVLHECL
As for B1, in test [2] (H1P55 on MATRIGEL, 20 ng/ml Wnt1 with 100 ng/ml of AA), the “definitive endoderm markers (Bry, CXCR4, GSC, SOX17, HNF-3B, and GATA-4)” value is “significant upregulation”.

B2: FGF10: member of the fibroblast growth factor family (protein, UniProt O15520 38-208, looked up)
Fibroblast growth factor 10: QALGQDMVSPEATNSSSSSFSSPSSAGRHVRSYNHLQGDVRWRKLFSFTKYFLKIEKNGKVSGTKKENCPYSILEITSVEIGVVAVKAINSNYYLAMNKKGKLYGSKEFNNDCKLKERIEENGYNTYASFNWQHNGRQMYVALNGKGAPRRGQKTRRKNTSAHFLPMVVHS
For the molecule B2, the “expression of the pancreatic endoderm marker Pdx1” value in test [4] is “maintained expression”.
